Measurements as given in patent publication US20240174717A1, “AFFINITY AGENTS” (Avitide LLC, priority 2021, published 2024).
Bridges are numbered along the chain shown (N, C = ends). [ ]: non-standard residue; d: D form. (Peg)3 = 12-amino-4,7,10-trioxadodecanoic acid subunits; PEG3 = NCCOCCOCCOCCC(=O)O; code 4 = not defined here; Dap = NC[C@H](N)C(=O)O

Legend:
exosomes = assay: Filter plate static binding experiment: affinity capture of exosomes by resins; conditions: ligand conjugated to A50 beads, load 1E10 particles/mL in PBST, 60 min
Procedure: A filter plate binding experiment using Durapore Membrane.
Resins were prepared by conjugating ligands to A50 beads.

[1] = Stability of affinity resin towards sodium hydroxide (static binding before and after treatment); assay type: physicochemical; conditions: 0.1 M NaOH for 18 hours, then static binding experiment vs untreated resin
Procedure: Resin comprising SEQ ID No: 43 was incubated with 0.1 M NaOH for 18 hours, washed and a static binding experiment was conducted as described in example 5.

Ave Capture (%) (exosomes; ligand density 7.4 mg/mL)	Ave Capture (%) (exosomes; ligand density 11.2 mg/mL)	Ave Capture (%) (exosomes; ligand density 7.7 mg/mL)	Ave Capture (%) (exosomes; ligand density 9.8 mg/mL)	Substance	stability of resin towards sodium hydroxide [1]
89%	98%	–	–	Ac-NYWR5VWFPHAQG2VSTA-(Peg)3K-Amide (Ac-NYWRDVWFPHAQG[Dap]VSTA[(Peg)3]K-NH2; lactam 5-14) [SEQ ID No. 43]	stable towards 0.1 M NaOH
–	–	38%	97%	Ac-NYWR5VWFPHAQG4VSTA-(Peg)3K-Amide (Ac-NYWRDVWFPHAQG[code 4]VSTA[PEG3]K-NH2; lactam 5-14; not fully specified (some residues); printed as Ac-NYWR5VWFPHAQG4VSTA-(Peg)3K-Amide; reading uncertain) [SEQ ID No. 28]	–
